The text below walks through data of publication PMC5515971, “Utility of spherical human liver microtissues for prediction of clinical drug-induced liver injury” (Archives of Toxicology, 2017).

Read-outs that look alike come from different tables or passages of the source.

Series [1] deals with primary human hepatocytes (PHH). Kind of series: Cytotoxicity (cellular ATP, CellTiter-Glo) in 2D plated primary human hepatocytes, 48 h treatment.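 Note: 384-well plates, luminescence read-out, normalized to vehicle wells with 1% DMSO.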 Type of series: cell-based. To be noted: Hepatocyte; 2D primary human hepatocytes (lot IZT), 48 h treatment, total cellular ATP content; read-out: Geomean IC50.
In series [2] the test system is 3D human liver microtissues (hLiMT). Briefly: Cytotoxicity (cellular ATP) in 3D human liver microtissues, 5-6 days treatment.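 Note: Hanging-drop spheroids, seven-point dilution series, re-dosed on day 3, CellTiter-Glo 2.0 luminescence, normalized to 0.5 or 1% DMSO vehicle controls on the same plate.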 Type of series: cell-based. To be noted: Homo sapiens; hLiMT, 5/6 days, ATP content; read-out: IC50 SHORT.
On the set-up of series [3]: method as in Russmann et al. [2005]. Particulars: patients; ref Russmann et al. [2005]; cited from earlier work.
For series [4] the following is noted: cited from earlier work.
For series [5] the following is noted: cited from earlier work. The source holds these as a separate data set.
For series [6] the following is noted: ref Chen et al 2016 / Chen et al 2011; cited from earlier work.
The test system of series [7] is 3D human liver microtissues (hLiMT). Briefly: Cytotoxicity (cellular ATP, CellTiter-Glo 2.0) in 3D human liver microtissues, 14 day repeat-dose treatment. To be noted: Homo sapiens, Hepatocyte, 336 h, read-out: Geomean IC50 [µM].

Regarding `CC(C)c1nc(N(C)S(C)(=O)=O)nc(-c2ccc(F)cc2)c1/C=C/[C@@H](O)C[C@@H](O)CC(=O)O` [Rosuvastatin], the IC50 in series [1] is greater than 100 µM; in series [2] it was 34.2 µM; in series [7] it was 7.8 µM. The “mild, transient elevations of plasma enzyme levels” value in series [3] is on record as 1–3%. The Cmax was 10 nM in series [4] (human Cmax total, used for IC50/Cmax) and 10 nM in series [4] (human total plasma Cmax, ref literature values). Besides, the DILI severity category in series [5] (Table 1, ref Garside et al. (2014)) is listed as 3: Low clinical DILI concern (N = 23); in series [5] (clinical DILI severity category, 1-5), 3. Low Clinical DILI Concern; in series [5] (table S-4, ref Garside et al. 2014), 3. Besides, the DILI category in series [5] (clinical, from literature and product labels, ref Garside et al. 2014) is given as 3. Low Clinical DILI Concern. Moreover, in series [6], the “FDA DILI Classification DILI severity score” value was 3. For the same compound, in series [6], the “LTKB DILI classification” value is given as “less DILI concern”.
